For one assay, the target named is Paired box protein Pax-8 (Homo sapiens, UniProt Q06710). The assay can be described thus: inhibitors of PAX8-driven TPO luciferase reporter, dose response, RMG-I cells, cherry-pick (AID 687027).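 Further: luciferase reporter driven by Pax8 target thyroperoxidase promoter measured by SteadyGlo luminescence.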 Type of assay: functional, cell-based.
A short description of assay [1]: NIH:OVCAR-3 ovarian cancer cell cytotoxicity, dose response, PAX8 inhibitor project, plate reader, dry powder samples (AID 743044). It is filed as functional, cell-based.
Assay [2] is described as follows: IGROV1 ovarian cancer cell cytotoxicity, dose response, PAX8 inhibitor project, plate reader, dry powder samples (AID 743043). It is filed as functional, cell-based. Conditions: IGROV-1.
The nature of assay [3]: cytotoxicity in OVCAR8 ovarian cancer cells, dose response, PAX8 project, cell-based, plate reader, dry powder samples (AID 743197). Type of assay: functional. To be noted: OVCAR-8.
Assay [4] addresses T1, Mannose-6-phosphate isomerase (Homo sapiens, UniProt P34949).
T1 sequence (P34949 whole entry): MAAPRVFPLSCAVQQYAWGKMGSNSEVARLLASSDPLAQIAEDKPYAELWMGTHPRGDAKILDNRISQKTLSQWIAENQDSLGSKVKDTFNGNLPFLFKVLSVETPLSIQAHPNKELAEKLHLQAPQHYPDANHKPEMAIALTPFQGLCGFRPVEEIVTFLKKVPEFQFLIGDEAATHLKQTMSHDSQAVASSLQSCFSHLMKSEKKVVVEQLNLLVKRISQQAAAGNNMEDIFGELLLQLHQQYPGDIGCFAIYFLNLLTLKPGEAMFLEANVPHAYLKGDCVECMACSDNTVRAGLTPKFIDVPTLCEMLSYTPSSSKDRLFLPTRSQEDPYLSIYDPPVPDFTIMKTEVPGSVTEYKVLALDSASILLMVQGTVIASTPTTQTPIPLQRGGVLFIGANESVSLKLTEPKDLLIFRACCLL
Nature of the assay: human PMI inhibitors, high substrate, primary screen, biochemical, fluorescence intensity, high mannose 6-phosphate (AID 1220).

Assay [5] concerns the target Tyrosyl-DNA phosphodiesterase 2 (Homo sapiens, UniProt O95551). Nature of the assay: human TDP2 enzyme inhibitors, dose response, biochemical, epi absorbance, IC50 (AID 743297).
A short description of assay [6]: MITF Orthogonal Assay: SK-MEL-5 CTG Assay Measured in Cell-Based System Using Plate Reader - 2084-02_Inhibitor_Dose_DryPowder_Activity_Set7. It is filed as functional.
A short description of assay [7]: MITF: Counter assay: A375 proliferation Measured in Cell-Based System Using Plate Reader - 2084-03_Inhibitor_Dose_DryPowder_Activity_Set8. Type of assay: functional. Conditions: A-375.

Calls of active or inactive are those of the source.

Sequence of Paired box protein Pax-8 (Q06710 whole entry): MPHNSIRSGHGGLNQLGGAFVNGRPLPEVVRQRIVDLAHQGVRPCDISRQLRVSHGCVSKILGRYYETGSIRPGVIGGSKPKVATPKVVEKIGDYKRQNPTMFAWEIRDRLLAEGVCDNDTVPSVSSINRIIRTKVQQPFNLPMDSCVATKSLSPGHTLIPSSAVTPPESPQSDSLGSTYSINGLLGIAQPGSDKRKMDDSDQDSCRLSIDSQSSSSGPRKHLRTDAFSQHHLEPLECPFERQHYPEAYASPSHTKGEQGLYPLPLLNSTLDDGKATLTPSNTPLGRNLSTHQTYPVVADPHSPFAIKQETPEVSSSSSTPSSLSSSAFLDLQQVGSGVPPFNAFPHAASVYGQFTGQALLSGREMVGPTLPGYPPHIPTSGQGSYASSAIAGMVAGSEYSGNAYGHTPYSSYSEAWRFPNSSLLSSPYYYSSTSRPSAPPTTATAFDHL
Sequence of Tyrosyl-DNA phosphodiesterase 2 (O95551 whole entry): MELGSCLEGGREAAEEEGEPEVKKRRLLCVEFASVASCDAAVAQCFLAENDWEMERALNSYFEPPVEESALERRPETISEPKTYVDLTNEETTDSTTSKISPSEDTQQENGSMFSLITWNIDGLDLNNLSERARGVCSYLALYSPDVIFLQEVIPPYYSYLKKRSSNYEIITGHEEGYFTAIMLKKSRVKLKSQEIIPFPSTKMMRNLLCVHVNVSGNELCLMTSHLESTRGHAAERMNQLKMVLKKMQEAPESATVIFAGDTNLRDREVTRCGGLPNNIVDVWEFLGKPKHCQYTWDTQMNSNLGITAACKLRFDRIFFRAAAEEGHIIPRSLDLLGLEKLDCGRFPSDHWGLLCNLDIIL

Regarding `C[C@@H]1CN([C@H](C)CO)C(=O)c2cc(NC(=O)CCC(F)(F)F)ccc2O[C@@H](C)CCCCO[C@@H]1CN(C)Cc1ccc(Cl)c(Cl)c1`, the half-maximal activity concentration (AC50) is 7.47 µM (active) on Paired box protein Pax-8, 33.3 µM (active) in assay [1], 45.7 µM (active) in assay [2] and 61 µM (active) in assay [3].

`Nn1cnnc1N/N=C\c1ccc(-c2ccccc2[N+](=O)[O-])o1`: the IC50 was > 50 µM (not active) in assay [4] and > 128 µM (inactive) in assay [5].

Turning to `COc1ccc(NC2=CC(=O)c3ccccc3C2=O)cc1`, the concentration at half-maximal activity (AC50) in assay [6] is 0.838 µM (active); in assay [7], > 70 µM (inactive).
